Source: US9388137B2, “Quaternized amines as sodium channel blockers” (Purdue Pharma L.P., priority 2011, dated 2016)

Columns and labels:
human Nav1.7 = human Nav1.7 (Homo sapiens (Human), UniProt Q15858); test: FLIPR sodium dye assay for sodium channel blocking activity; type: cell-based; settings: recombinant Nav1.7/HEK293 cells
hNav1.7 = hNav1.7 (Homo sapiens (Human), UniProt Q15858); test: Electrophysiology (EP) assay, whole-cell patch clamp; type: cell-based; settings: hNav1.7 HEK-293 cells
Chain of hNav1.7 (Q15858 other isoform, or with tags, fused parts or gaps): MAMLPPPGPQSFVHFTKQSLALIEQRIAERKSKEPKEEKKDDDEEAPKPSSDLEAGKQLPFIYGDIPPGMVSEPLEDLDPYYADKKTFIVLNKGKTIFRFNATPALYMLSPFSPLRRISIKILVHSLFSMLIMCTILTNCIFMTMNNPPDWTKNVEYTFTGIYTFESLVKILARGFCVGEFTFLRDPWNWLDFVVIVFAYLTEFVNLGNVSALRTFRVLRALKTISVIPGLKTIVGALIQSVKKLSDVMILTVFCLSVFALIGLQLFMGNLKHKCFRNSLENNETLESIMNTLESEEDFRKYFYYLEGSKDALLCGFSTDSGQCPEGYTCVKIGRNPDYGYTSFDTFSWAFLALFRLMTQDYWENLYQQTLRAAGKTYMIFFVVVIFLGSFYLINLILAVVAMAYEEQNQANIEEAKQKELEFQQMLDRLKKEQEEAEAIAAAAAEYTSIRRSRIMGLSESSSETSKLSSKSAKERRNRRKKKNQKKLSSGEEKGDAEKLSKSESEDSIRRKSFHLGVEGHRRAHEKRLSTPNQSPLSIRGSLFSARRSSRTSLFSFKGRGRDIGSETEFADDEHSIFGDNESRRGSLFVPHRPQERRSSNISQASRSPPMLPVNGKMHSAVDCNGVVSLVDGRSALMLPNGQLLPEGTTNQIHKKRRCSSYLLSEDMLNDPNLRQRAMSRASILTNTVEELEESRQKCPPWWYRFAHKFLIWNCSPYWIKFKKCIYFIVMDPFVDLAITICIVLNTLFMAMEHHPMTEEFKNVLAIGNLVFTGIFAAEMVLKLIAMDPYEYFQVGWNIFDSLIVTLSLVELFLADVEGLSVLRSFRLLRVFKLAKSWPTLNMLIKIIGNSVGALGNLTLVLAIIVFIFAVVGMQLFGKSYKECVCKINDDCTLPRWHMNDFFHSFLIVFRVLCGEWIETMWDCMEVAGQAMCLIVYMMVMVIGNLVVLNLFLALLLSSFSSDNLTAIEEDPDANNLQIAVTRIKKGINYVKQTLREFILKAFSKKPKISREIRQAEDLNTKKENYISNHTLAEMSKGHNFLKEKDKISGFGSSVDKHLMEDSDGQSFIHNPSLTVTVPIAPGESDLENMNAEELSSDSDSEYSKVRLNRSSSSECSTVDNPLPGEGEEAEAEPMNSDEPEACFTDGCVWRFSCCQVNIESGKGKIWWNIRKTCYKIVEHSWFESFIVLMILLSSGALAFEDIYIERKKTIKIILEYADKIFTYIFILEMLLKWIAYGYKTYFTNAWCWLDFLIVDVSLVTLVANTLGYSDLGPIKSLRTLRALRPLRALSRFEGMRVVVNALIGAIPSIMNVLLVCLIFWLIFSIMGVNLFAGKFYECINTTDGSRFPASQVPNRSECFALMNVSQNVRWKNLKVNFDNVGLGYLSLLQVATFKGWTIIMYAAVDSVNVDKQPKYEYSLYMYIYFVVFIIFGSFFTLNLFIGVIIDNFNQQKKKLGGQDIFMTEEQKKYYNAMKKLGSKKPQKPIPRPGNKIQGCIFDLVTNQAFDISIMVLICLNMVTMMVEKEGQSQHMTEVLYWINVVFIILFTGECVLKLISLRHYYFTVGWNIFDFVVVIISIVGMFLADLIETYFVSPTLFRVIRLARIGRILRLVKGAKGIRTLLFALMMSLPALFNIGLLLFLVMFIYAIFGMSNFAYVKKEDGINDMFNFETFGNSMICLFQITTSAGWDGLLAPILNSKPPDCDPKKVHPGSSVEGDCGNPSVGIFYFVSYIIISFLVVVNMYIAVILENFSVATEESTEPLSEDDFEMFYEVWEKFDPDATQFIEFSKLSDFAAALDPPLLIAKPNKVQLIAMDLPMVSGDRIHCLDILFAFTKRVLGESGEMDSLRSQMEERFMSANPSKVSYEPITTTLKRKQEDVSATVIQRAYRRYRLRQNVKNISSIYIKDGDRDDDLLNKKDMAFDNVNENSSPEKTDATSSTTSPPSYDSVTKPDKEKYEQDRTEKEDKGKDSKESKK

Chain of human Nav1.7 (Q15858 other isoform, or with tags, fused parts or gaps): as above

SMILES	IC50 (human Nav1.7)	Ki (hNav1.7; affinity for the inactivated state of the channel, read-out: Nav1.7 Activity EP assay Ki)	Kd (hNav1.7; dissociation constant for binding to the resting state of the channel, read-out: Nav1.7 Activity EP assay Kr)
Cc1cc(C(=O)NCC[N+]2(C)CCOCC2)cc(-c2ccc(Oc3ccc(F)cc3)cc2)n1 [Example 2, 4-[2-({2-[4-(4-fluoro-phenoxy)-phenyl]-6-methyl-pyridine-4-carbonyl}-amino)-ethyl]-4-methyl-morpholin-4-ium]	1.88 ± 0.287 µM		
Cc1cc(C(=O)N2CCC([N+]3(C)CCCC3)CC2)cc(-c2ccc(Oc3ccc(F)cc3)cc2)n1 [Example 3, 1-(1-{2-[4-(4-fluoro-phenoxy)-phenyl]-6-methyl-pyridine-4-carbonyl}-piperidin-4-yl)-1-methyl-pyrrolidinium]	> 20 µM		
Cc1cc(C(=O)NCC[N+](C)(C)C)cc(-c2ccc(Oc3ccc(F)cc3)cc2)n1 [Example 6, [2-({2-[4-(4-fluoro-phenoxy)-phenyl]-6-methyl-pyridine-4-carbonyl}-amino)-ethyl]-trimethyl-ammonium]	6.52 ± 0.466 µM		
Cc1cc(C(=O)NCC[N+]2(C)CCCCC2)cc(-c2ccc(Oc3ccc(F)cc3)cc2)n1 [Example 1, 1-[2-({2-[4-(4-fluoro-phenoxy)-phenyl]-6-methyl-pyridine-4-carbonyl}-amino)-ethyl]-1-methyl-piperidinium]	0.872 ± 0.255 µM	6.03 ± 0.91 µM	125 ± 23.4 µM
Cc1cc(C(=O)NCc2ccc([N+](C)(C)C)cc2)cc(-c2ccc(Oc3ccc(F)cc3)cc2)n1 [Example 4, {4-[({2-[4-(4-fluoro-phenoxy)-phenyl]-6-methyl-pyridine-4-carbonyl}-amino)-methyl]-phenyl}-trimethyl-ammonium]	3.99 ± 0.289 µM		
Cc1cc(C(=O)N(C)C2CC[N+](C)(C)CC2)cc(-c2ccc(Oc3ccc(F)cc3)cc2)n1 [Example 8, 4-({2-[4-(4-Fluoro-phenoxy)-phenyl]-6-methyl-pyridine-4-carbonyl}-methyl-amino)-1,1-dimethyl-piperidinium]	> 20 µM		
Cc1cc(C(=O)N2CC[N+](C)(C)CC2)cc(-c2ccc(Oc3ccc(F)cc3)cc2)n1 [Example 7, 4-{2-[4-(4-Fluoro-phenoxy)-phenyl]-6-methyl-pyridine-4-carbonyl}-1,1-dimethyl-piperazin-1-ium]	> 20 µM		
Cc1cc(C(=O)NCC[N+]2(C)CCCC2)cc(-c2ccc(Oc3ccc(F)cc3)cc2)n1 [Example 5, 1-[2-({2-[4-(4-fluoro-phenoxy)-phenyl]-6-methyl-pyridine-4-carbonyl}-amino)-ethyl]-1-methyl-pyrrolidinium]	2.9 ± 0.375 µM		
